Assay results published in US20210214758A1, “METHODS AND TOOLS FOR DETERMINING CLONAL RELATEDNESS AND PREDICTING CLONAL TRAITS” (priority 2018, published 2021).

Tested on: Klebsiella isolates
Assay: Antibiotic susceptibility of Klebsiella clinical isolates per 7-SNP clonotype (Lookup Table 1; disk diffusion)
Assay type: cell-based, Klebsiella spp.
Procedure: In further embodiments, the Lookup Table is Lookup Table 1. The information contained in Lookup Table 1 below was obtained from urine specimens from patients with Klebsiella infections from several clinics within different regions of the United States. CT=clonotypes determined using a 7-SNP combination: phoE54; rpoB130; infB279; mdh315; phoE336; phoE354; and mdh429.
Next, antibiotic resistance was determined for all 387 Klebsiella isolates in the discovery set. Antibiotic testing was carried out according to the standard disk diffusion method as described in the Clinical and Laboratory Standards Institute (M100 Performance Standards for Antimicrobial Susceptibility Testing, 27th Edition, 2017). […] Since almost all Klebsiella isolates are known to be resistant to AMP and sensitive to IMI, TET is not used for treatment of urinary tract infections, and ESBL production is partially reflected in resistance to CTR, these antibiotics were not included for further analysis.
To aid in clinical decision-making and to translate clonotype information to treatment selection, Lookup Table 1 was generated. […] The information contained in Lookup Table 1 was obtained from urine specimens from patients with Klebsiella infections from several clinics within different regions of the United States. Indications of allowance or non-recommendation were determined based on a 20% resistance threshold to the indicated antibiotic; i.e., the antibiotic is recommended when more than 80% of the tested isolates within the indicated clonotype were susceptible to the indicated antibiotic, and was cautioned against when less than 80% of the isolates were susceptible to the antibiotic.

With `C[C@@H]1O[C@@H]1P(=O)(O)O` [FOS, fosfomycin] the “susceptibility, %” value (CT 000) was 63%, the “susceptibility, %” value (CT 001) was 0% and the “susceptibility, %” value (CT 010) was 33%. For the same compound, the “susceptibility, %” value (CT 011) was 9%, the “susceptibility, %” value (CT 031) was 33% and the “susceptibility, %” value (CT 040) was 25%. For the same compound, the “susceptibility, %” value (CT 050) was 29%, the “susceptibility, %” value (CT 051) was 41% and the “susceptibility, %” value (CT 071) was 80%. For the same compound, the “susceptibility, %” value (CT 100) was 71%, the “susceptibility, %” value (CT 110) was 0% and the “susceptibility, %” value (CT 111) was 30%. For the same compound, the “susceptibility, %” value (CT 130) was 29%, the “susceptibility, %” value (CT 131) was 36% and the “susceptibility, %” value (CT 141) was 0%. For the same compound, the “susceptibility, %” value (CT 150) was 42%, the “susceptibility, %” value (CT 151) was 43% and the “susceptibility, %” value (CT 160) was 0%. The “susceptibility, %” value (CT 170) was 39%, the “susceptibility, %” value (CT 171) was 22% and the “susceptibility, %” value (CT 200) was 43%. The “susceptibility, %” value (CT 201) was 26%, the “susceptibility, %” value (CT 210) was 45% and the “susceptibility, %” value (CT 211) was 43%. For the same compound, the “susceptibility, %” value (CT 230) was 100%, the “susceptibility, %” value (CT 231) was 100% and the “susceptibility, %” value (CT 240) was 100%. For the same compound, the “susceptibility, %” value (CT 241) was 0%, the “susceptibility, %” value (CT 250) was 55% and the “susceptibility, %” value (CT 251) was 40%. The “susceptibility, %” value (CT 271) was 38%, the “susceptibility, %” value (CT 300) was 0% and the “susceptibility, %” value (CT 301) was 24%. The “susceptibility, %” value (CT 310) was 33%, the “susceptibility, %” value (CT 311) was 35% and the “susceptibility, %” value (CT 330) was 40%. For the same compound, the “susceptibility, %” value (CT 331) was 32%, the “susceptibility, %” value (CT 350) was 44% and the “susceptibility, %” value (CT 351) was 35%. The “susceptibility, %” value (CT 370) was 25%, the “susceptibility, %” value (CT 371) was 50% and the “susceptibility, %” value (CT 411) was 50%. For the same compound, the “susceptibility, %” value (CT 450) was 33%, the “susceptibility, %” value (CT 451) was 33% and the “susceptibility, %” value (CT 510) was 50%. For the same compound, the “susceptibility, %” value (CT 511) was 100%, the “susceptibility, %” value (CT 530) was 14% and the “susceptibility, %” value (CT 531) was 33%. The “susceptibility, %” value (CT 550) was 33%, the “susceptibility, %” value (CT 551) was 36% and the “susceptibility, %” value (CT 570) was 50%. For the same compound, the “susceptibility, %” value (CT 571) was 25%, the “susceptibility, %” value (CT 611) was 33% and the “susceptibility, %” value (CT 630) was 0%. The “susceptibility, %” value (CT 650) was 37%, the “susceptibility, %” value (CT 651) was 24% and the “susceptibility, %” value (CT 670) was 0%. The “susceptibility, %” value (CT 710) was 33%, the “susceptibility, %” value (CT 730) was 21% and the “susceptibility, %” value (CT 731) was 43%. The “susceptibility, %” value (CT 750) was 60%, the “susceptibility, %” value (CT 751) was 17% and the “susceptibility, %” value (CT 771) was 36%. For the same compound, the “susceptibility, %” value (CT Any Klebsiella spp.) was 41%.

`C[C@@H](O)[C@H]1C(=O)N2C(C(=O)O)=C(SCCN=CN)C[C@H]12` [IMI, imipenem] was tested, and the “susceptibility, %” value (CT 000) was 100%, the “susceptibility, %” value (CT 001) was 100% and the “susceptibility, %” value (CT 010) was 100%. The “susceptibility, %” value (CT 011) was 100%, the “susceptibility, %” value (CT 031) was 67% and the “susceptibility, %” value (CT 040) was 75%. For the same compound, the “susceptibility, %” value (CT 050) was 100%, the “susceptibility, %” value (CT 051) was 100% and the “susceptibility, %” value (CT 071) was 100%. The “susceptibility, %” value (CT 100) was 100%, the “susceptibility, %” value (CT 110) was 100% and the “susceptibility, %” value (CT 111) was 100%. For the same compound, the “susceptibility, %” value (CT 130) was 100%, the “susceptibility, %” value (CT 131) was 98% and the “susceptibility, %” value (CT 141) was 100%. The “susceptibility, %” value (CT 150) was 99%, the “susceptibility, %” value (CT 151) was 100% and the “susceptibility, %” value (CT 160) was 100%. The “susceptibility, %” value (CT 170) was 96%, the “susceptibility, %” value (CT 171) was 97% and the “susceptibility, %” value (CT 200) was 100%. The “susceptibility, %” value (CT 201) was 100%, the “susceptibility, %” value (CT 210) was 100% and the “susceptibility, %” value (CT 211) was 100%. The “susceptibility, %” value (CT 230) was 100%, the “susceptibility, %” value (CT 231) was 100% and the “susceptibility, %” value (CT 240) was 100%. For the same compound, the “susceptibility, %” value (CT 241) was 100%, the “susceptibility, %” value (CT 250) was 100% and the “susceptibility, %” value (CT 251) was 100%. The “susceptibility, %” value (CT 271) was 100%, the “susceptibility, %” value (CT 300) was 100% and the “susceptibility, %” value (CT 301) was 100%. The “susceptibility, %” value (CT 310) was 100%, the “susceptibility, %” value (CT 311) was 100% and the “susceptibility, %” value (CT 330) was 100%. The “susceptibility, %” value (CT 331) was 100%, the “susceptibility, %” value (CT 350) was 100% and the “susceptibility, %” value (CT 351) was 100%. For the same compound, the “susceptibility, %” value (CT 370) was 100%, the “susceptibility, %” value (CT 371) was 100% and the “susceptibility, %” value (CT 411) was 100%. For the same compound, the “susceptibility, %” value (CT 450) was 100%, the “susceptibility, %” value (CT 451) was 100% and the “susceptibility, %” value (CT 510) was 100%. For the same compound, the “susceptibility, %” value (CT 511) was 100%, the “susceptibility, %” value (CT 530) was 100% and the “susceptibility, %” value (CT 531) was 100%. For the same compound, the “susceptibility, %” value (CT 550) was 98%, the “susceptibility, %” value (CT 551) was 75% and the “susceptibility, %” value (CT 570) was 100%. For the same compound, the “susceptibility, %” value (CT 571) was 100%, the “susceptibility, %” value (CT 611) was 100% and the “susceptibility, %” value (CT 630) was 100%. The “susceptibility, %” value (CT 650) was 100%, the “susceptibility, %” value (CT 651) was 100% and the “susceptibility, %” value (CT 670) was 100%. The “susceptibility, %” value (CT 710) was 100%, the “susceptibility, %” value (CT 730) was 98% and the “susceptibility, %” value (CT 731) was 100%. For the same compound, the “susceptibility, %” value (CT 750) was 100%, the “susceptibility, %” value (CT 751) was 100% and the “susceptibility, %” value (CT 771) was 100%. For the same compound, the “susceptibility, %” value (CT Any Klebsiella spp.) was 99%.
